Test results reported in US20250082643A1, “COMBINATION THERAPY FOR PIK3CA-ASSOCIATED DISEASES OR DISORDERS” (Faeth Therapeutics, Inc., priority 2021, published 2025).

Legend:
[1] = system: renal cell carcinoma xenograft with mutations in the PTEN gene; settings: cited from earlier work
[2] = target: PI3Kα (Homo sapiens, UniProt P42336); settings: biochemical assays; read-out: half maximal inhibitory concentration (IC50); cited from earlier work
[3] = system: solid tumors with PIK3CA mutations with or without PTEN loss; settings: human, in vivo
From the text: The primary objective of the study is to evaluate the safety, feasibility, and pharmacokinetic impact of intrasubject modulated dosing for serabelisib when co-administered with a study ISD in a pilot cohort of subjects with solid tumors with PIK3CA mutations with or without PTEN loss. […] For the expansion cohort, nab-paclitaxel will also be administered with serabelisib when co-administered with a study ISD. […] FIG. 4 depicts a representation of the study cohorts of the clinical trial using serabelisib in combination with an insulin suppressing diet and nab-paclitaxel in subjects with cancer.
Cohort 1a (Dose Modification): The primary objective of the study is to evaluate the safety, compliance, and pharmacokinetic (PK) impact of intrasubject modulated dosing for serabelisib in combination with a Study ISD in a pilot cohort. […] Endpoints include: ORR, defined as the proportion of subjects who have best overall response of either CR or PR, as determined by each site; Progression free survival (PFS), defined as the time from date of first dose of Study Drug (Visit 1) to the date of first evidence of disease progression or death from any cause (whichever occurs first); Overall survival (OS) and landmark survival; Duration of response (DoR); and Disease control rate (DCR; CR+PR+stable disease [SD]). […]

[4] = system: CYP1A2; settings: cited from earlier work
[5] = target: CYP2C19 (Homo sapiens, UniProt P33261); settings: cited from earlier work
[6] = target: CYP1A2 (Homo sapiens, UniProt P05177); settings: cited from earlier work
[7] = system: human breast cancer cells harboring mutations in the PIK3CA gene; settings: mouse xenograft, PIK3CA-mutated human breast cancer cells; cited from earlier work
[8] = target: CYP2B6 (Homo sapiens, UniProt P20813); settings: cited from earlier work
[9] = system: a range of cell lines; settings: cited from earlier work
[10] = system: solid tumors; settings: cited from earlier work
[11] = target: organic cation transporter (OCT) 1 (Homo sapiens, UniProt O15245); settings: cited from earlier work
[12] = target: mammalian target of rapamycin (mTOR) (Homo sapiens, UniProt P42345); settings: relative to PI3Kα
[13] = system: CYP3A4/5; settings: cited from earlier work
[14] = target: OCT2 (Homo sapiens, UniProt O15244); settings: cited from earlier work
[15] = target: CYP2C9 (Homo sapiens, UniProt P11712); settings: cited from earlier work
[16] = cited from earlier work
[17] = target: breast cancer resistance protein (BCRP) (Homo sapiens, UniProt Q9UNQ0); settings: cited from earlier work
[18] = target: CYP3A4 (Homo sapiens, UniProt P08684); settings: normalized for liver content; cited from earlier work
[19] = system: CYP2B6; settings: cited from earlier work
[20] = system: downstream signaling of PI3K; settings: cell lines with hyperactivation of the pathway; cited from earlier work
[21] = in vitro metabolism, across test species; cited from earlier work
[22] = target: CYP2C8 (Homo sapiens, UniProt P10632); settings: cited from earlier work
[23] = target: CYP2D6 (Homo sapiens, UniProt P10635); settings: cited from earlier work
[24] = system: CYP3A4/5; settings: cited from earlier work; remark: listed apart in the source
[25] = system: other class I PI3K isoforms; settings: relative to PI3Kα
[26] = oral administration, various animal species

organic cation transporter (OCT) 1, sequence (O15245 whole entry): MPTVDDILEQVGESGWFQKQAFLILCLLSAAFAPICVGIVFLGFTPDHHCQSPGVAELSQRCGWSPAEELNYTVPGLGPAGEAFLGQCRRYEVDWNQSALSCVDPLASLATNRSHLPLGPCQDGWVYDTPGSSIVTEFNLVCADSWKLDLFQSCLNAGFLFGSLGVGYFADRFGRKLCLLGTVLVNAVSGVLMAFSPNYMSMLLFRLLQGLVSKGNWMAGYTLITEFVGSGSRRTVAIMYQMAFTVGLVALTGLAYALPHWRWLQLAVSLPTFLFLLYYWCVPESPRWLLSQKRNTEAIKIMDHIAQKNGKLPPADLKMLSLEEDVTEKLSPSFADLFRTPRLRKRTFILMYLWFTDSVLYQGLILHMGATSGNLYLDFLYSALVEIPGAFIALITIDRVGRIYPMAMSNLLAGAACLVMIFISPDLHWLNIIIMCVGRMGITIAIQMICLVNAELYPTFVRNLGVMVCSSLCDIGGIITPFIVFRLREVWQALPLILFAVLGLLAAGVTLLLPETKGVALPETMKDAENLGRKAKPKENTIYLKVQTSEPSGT
PI3Kα, sequence (P42336 whole entry): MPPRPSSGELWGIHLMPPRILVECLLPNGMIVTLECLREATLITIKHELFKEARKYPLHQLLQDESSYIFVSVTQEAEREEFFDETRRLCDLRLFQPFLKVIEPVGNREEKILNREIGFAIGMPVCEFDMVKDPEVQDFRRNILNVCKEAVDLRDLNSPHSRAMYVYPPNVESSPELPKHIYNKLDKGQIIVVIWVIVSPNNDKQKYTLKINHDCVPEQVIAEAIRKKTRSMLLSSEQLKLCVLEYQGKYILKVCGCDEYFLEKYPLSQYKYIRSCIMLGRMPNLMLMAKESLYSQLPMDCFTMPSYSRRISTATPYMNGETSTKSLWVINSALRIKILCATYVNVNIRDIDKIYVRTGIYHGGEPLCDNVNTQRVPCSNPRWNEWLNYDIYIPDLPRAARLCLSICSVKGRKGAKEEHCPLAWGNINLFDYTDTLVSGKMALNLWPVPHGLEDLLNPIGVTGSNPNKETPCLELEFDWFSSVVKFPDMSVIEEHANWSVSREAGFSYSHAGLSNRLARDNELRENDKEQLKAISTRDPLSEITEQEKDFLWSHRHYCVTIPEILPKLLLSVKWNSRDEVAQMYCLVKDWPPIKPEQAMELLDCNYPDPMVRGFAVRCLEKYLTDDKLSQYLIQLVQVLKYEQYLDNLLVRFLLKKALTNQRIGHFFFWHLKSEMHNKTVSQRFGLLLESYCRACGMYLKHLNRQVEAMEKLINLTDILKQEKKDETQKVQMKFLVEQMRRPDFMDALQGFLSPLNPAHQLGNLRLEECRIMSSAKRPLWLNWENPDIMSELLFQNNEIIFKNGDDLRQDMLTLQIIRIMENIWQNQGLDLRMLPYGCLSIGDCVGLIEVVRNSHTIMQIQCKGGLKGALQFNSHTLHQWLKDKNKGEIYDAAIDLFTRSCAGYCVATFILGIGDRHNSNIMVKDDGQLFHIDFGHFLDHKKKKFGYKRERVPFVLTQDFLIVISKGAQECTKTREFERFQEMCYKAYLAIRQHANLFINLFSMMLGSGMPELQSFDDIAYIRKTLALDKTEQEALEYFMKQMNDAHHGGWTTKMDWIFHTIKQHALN
PI3Kα, sequence (P27986 whole entry partner): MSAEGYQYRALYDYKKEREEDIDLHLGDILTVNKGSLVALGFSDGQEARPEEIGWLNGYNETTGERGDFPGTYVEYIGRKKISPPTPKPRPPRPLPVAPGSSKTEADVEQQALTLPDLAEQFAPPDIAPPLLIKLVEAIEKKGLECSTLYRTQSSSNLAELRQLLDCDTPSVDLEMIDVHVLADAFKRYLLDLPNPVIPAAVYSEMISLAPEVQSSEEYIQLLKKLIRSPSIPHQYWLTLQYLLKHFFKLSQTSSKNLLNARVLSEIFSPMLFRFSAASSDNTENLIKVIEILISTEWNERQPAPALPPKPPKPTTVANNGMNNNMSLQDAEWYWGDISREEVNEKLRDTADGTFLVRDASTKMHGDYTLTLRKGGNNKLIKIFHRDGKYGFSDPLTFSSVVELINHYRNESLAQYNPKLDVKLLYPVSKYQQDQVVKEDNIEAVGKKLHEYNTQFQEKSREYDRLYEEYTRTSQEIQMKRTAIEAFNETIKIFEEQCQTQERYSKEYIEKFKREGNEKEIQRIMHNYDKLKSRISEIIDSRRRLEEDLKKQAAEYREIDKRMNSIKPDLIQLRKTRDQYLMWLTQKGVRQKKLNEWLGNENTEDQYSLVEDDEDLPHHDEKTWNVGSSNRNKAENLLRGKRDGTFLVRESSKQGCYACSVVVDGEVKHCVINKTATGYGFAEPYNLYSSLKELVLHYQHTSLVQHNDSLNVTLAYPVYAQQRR
CYP2C9, sequence (P11712 whole entry): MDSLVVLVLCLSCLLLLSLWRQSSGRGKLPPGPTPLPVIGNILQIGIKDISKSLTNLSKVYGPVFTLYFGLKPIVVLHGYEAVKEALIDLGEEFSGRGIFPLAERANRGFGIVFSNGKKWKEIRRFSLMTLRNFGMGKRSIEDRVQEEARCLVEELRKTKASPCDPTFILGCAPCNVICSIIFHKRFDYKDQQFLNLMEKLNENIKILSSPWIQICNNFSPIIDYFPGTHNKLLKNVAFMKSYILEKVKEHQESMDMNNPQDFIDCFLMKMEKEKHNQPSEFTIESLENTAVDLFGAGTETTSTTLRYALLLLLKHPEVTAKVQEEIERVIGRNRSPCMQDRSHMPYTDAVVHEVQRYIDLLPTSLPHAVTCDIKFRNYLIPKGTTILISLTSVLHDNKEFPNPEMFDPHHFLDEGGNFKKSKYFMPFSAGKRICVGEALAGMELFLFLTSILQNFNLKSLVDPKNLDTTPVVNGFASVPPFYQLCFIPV
breast cancer resistance protein (BCRP), sequence (Q9UNQ0 whole entry): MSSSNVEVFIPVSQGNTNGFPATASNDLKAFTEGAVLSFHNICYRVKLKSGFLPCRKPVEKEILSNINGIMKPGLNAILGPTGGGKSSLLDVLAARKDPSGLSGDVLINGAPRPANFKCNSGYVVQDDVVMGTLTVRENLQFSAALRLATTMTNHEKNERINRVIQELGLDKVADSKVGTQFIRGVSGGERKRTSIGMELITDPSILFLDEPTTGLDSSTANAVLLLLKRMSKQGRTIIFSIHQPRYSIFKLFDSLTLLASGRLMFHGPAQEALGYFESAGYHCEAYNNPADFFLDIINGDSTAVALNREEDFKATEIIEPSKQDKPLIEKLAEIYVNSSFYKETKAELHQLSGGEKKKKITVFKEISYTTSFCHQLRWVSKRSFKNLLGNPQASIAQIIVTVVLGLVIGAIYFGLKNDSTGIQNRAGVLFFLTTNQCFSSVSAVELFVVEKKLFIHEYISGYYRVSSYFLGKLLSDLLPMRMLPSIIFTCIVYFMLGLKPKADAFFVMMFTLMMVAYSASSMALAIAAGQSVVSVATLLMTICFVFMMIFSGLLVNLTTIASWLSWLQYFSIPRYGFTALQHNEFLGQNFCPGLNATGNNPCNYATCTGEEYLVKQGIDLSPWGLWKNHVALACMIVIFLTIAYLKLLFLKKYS
CYP2B6 (Homo sapiens, UniProt P20813), sequence (P20813 whole entry): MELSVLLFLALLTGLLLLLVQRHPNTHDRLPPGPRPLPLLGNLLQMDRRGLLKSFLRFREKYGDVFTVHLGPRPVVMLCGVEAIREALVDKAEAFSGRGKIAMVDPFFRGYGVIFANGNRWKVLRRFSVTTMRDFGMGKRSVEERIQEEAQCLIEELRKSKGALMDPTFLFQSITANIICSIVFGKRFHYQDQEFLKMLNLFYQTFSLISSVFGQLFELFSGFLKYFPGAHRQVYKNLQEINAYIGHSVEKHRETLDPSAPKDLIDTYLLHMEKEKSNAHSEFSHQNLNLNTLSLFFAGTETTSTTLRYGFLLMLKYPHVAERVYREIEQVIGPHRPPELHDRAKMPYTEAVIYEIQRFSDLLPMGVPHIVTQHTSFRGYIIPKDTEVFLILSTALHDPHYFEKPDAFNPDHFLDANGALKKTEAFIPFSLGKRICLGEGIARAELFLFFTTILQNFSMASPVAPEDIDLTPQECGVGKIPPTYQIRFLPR
CYP2C8, sequence (P10632 whole entry): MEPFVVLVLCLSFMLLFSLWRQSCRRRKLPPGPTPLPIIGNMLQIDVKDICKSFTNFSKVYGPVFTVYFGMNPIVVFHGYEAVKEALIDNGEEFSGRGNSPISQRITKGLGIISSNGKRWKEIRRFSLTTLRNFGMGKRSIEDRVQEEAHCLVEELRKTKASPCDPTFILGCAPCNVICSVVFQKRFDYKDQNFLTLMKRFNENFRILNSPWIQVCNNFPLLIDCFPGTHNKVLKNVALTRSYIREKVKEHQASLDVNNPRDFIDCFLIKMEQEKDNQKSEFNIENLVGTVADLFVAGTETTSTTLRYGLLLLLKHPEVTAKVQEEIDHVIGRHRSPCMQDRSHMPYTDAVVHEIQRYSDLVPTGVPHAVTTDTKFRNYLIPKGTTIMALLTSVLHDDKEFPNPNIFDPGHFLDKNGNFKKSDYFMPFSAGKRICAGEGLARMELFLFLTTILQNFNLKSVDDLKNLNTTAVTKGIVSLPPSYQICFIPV
CYP1A2 (Homo sapiens, UniProt P05177), sequence (P05177 whole entry): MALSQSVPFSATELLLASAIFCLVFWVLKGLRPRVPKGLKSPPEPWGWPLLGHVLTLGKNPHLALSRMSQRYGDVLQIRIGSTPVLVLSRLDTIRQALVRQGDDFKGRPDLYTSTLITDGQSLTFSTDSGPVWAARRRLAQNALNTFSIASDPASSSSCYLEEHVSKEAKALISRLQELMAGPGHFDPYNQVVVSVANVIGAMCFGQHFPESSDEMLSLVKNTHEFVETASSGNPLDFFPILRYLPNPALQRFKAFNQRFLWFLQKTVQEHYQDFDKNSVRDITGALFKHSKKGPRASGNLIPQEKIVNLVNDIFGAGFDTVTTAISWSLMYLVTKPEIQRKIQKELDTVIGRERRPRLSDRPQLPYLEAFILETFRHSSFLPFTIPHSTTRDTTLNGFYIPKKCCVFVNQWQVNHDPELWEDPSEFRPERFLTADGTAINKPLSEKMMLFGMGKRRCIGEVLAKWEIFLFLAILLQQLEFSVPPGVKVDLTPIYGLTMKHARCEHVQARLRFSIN

Nc1nc2cc(-c3ccc4ncc(C(=O)N5CCOCC5)n4c3)ccc2o1 [serabelisib, 6-(2-Aminobenzo[d]oxazol-5-yl) imidazo[1,2-a]pyridine-3-yl morpholino methanone]
efficacy on xenograft [1]: no efficacy | IC50 [2]: 20 nM | drug accumulation between dosing cycles [3]: No meaningful drug accumulation | induction of CYP1A2 activity [4]: does not induce | inhibition of CYP2C19 [5]: low potential for inhibition | inhibition of CYP1A2 [6]: low potential for inhibition | tumor growth inhibition [7]: strong tumor growth inhibition | inhibition of CYP2B6 [8]: low potential for inhibition | antiproliferative activity [9]: demonstrates antiproliferative activity | subjects with related serious adverse events (SAEs) ([10]; 3CDW cohorts): 7% | MTD ([10]; Phase 1 study, intermittent 3CDW schedule): 900 mg | related adverse event: decreased appetite ([10]; across all doses and regimens): 23% | related adverse event: diarrhea ([10]; across all doses and regimens): 31% | related adverse event: hyperglycemia ([10]; across all doses and regimens): 37% | related adverse event: increased aspartate aminotransferase (AST) ([10]; across all doses and regimens): 20% | related adverse event: nausea ([10]; across all doses and regimens): 50% | related adverse event: vomiting ([10]; across all doses and regimens): 38% | subjects with gastrointestinal dose-limiting toxicity (DLT) ([10]; dose escalated from 900 mg to 1200 mg, 3CDW regimen): 2 of 3 | PK profile ([10]; human, in vivo): linear PK profile | cases of drug-induced liver injury (DILI) ([10]; prior serabelisib clinical trials): no cases of DILI have been reported | doses giving biologically active exposures ([10]; results from skin biopsy samples): > 200 mg | inhibition of OCT1 [11]: inhibitor | selectivity over mTOR [12]: > 50 fold | induction of CYP3A4/5 activity [13]: does not induce | inhibition of OCT2 [14]: inhibitor | inhibition of CYP2C9 [15]: low potential for inhibition | tissue distribution of radiolabeled drug ([16]; following oral dosing): well distributed to all tissues | absorption [16, 26]: rapid absorption | bioavailability [16, 26]: high bioavailable | excretion ([16]; urine and feces): majority of the drug is excreted in urine and feces as the parent compound | inhibition of BCRP [17]: inhibitor | share of metabolism by CYP3A4 [18]: 72% | induction of CYP2B6 activity [19]: does not induce | downstream signaling of PI3K [20]: blocks downstream signaling of PI3K | unique human metabolite [21]: no unique human metabolite was identified | inhibition of CYP2C8 [22]: low potential for inhibition | inhibition of CYP2D6 [23]: low potential for inhibition | inhibition of CYP3A4/5 [24]: low potential for inhibition | selectivity over other class I PI3K isoforms [25]: > 50 fold
